US20090176807A1, “GLUCOCORTICOID MIMETICS, METHODS OF MAKING THEM, PHARMACEUTICAL COMPOSITIONS, AND USES THEREOF” (priority 2005, published 2009)

target: T1, human glucocorticoid receptor (GR) complex (Homo sapiens, UniProt P04150); test: Glucocorticoid receptor competitive binding assay (fluorescence polarization); settings: competition with TAMRA-labeled dexamethasone, result in words only
T1 construct: made in house; host or cells: insect expression system (baculovirus lysate)
T1 sequence (P04150 1-777): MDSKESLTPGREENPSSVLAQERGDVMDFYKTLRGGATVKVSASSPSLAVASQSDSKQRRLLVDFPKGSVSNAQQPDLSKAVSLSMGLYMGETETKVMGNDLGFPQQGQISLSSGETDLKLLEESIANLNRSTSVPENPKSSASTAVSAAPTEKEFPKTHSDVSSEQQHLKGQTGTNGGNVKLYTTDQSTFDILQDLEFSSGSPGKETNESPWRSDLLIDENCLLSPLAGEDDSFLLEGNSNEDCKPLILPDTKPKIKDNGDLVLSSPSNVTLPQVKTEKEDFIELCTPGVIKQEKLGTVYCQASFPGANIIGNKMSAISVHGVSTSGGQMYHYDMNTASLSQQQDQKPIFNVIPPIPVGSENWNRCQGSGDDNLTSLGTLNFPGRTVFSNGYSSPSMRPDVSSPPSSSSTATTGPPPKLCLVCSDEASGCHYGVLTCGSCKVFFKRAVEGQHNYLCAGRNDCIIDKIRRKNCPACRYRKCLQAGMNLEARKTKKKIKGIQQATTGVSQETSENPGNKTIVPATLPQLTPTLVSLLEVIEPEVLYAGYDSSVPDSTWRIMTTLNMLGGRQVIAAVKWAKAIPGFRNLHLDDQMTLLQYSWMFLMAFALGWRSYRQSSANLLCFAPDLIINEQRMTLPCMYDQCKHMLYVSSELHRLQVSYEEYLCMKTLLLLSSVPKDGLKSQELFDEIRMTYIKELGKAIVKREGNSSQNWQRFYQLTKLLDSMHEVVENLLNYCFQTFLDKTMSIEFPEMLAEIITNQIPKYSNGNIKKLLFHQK
Description: Compounds of the invention were evaluated for binding to the steroid receptor by a fluorescence polarization competitive binding assay.
The wavelengths for maximum excitation and emission of the fluorescent probe should first be measured. An example of such a probe is rhodamine (TAMRA)-labeled dexamethasone.
The affinity of the probe for the steroid receptor was then determined in a titration experiment. The fluorescence polarization value of the probe in assay buffer was measured on an SLM-8100 fluorometer using the excitation and emission maximum values described above. Aliquots of expression vector lysate were added and fluorescence polarization was measured after each addition until no further change in polarization value was observed. Non-linear least squares regression analysis was used to calculate the dissociation constant of the probe from the polarization values obtained for lysate binding to the probe.
This assay uses fluorescence polarization (FP) to quantitate the ability of test compounds to compete with tetramethyl rhodamine (TAMRA)-labeled dexamethasone for binding to a human glucocorticoid receptor (GR) complex prepared from an insect expression system. The assay buffer was: 10 mM TES, 50 mM KCl, 20 mM Na2MoO4.2H2O, 1.5 mM EDTA, 0.04% w/v CHAPS, 10% v/v glycerol, 1 mM dithiothreitol, pH 7.4. Test compounds were dissolved to 1 mM in neat DMSO and then further diluted to 10× assay concentration in assay buffer supplemented with 10% v/v DMSO. Test compounds were serially diluted at 10× assay concentrations in 10% DMSO-containing buffer in 96-well polypropylene plates. Binding reaction mixtures were prepared in 96-well black Dynex microtiter plates by sequential addition of the following assay components to each well: 15 μL of 10× test compound solution, 85 μL of GR-containing baculovirus lysate diluted 1:170 in assay buffer, and 50 μL of 15 nM TAMRA-labeled dexamethasone. Positive controls were reaction mixtures containing no test compound; negative controls (blanks) were reaction mixtures containing 0.7 μM to 2 μM dexamethasone. […] IC50 values were determined by iterative non-linear curve fitting of the FP signal data to a 4-parameter logistic equation.

Activity in the GR binding assay, potent activity:
CC(C)(CC(O)(Cn1cc(Cl)c(=O)c2cnccc21)C(F)(F)F)c1cccc2c1OCO2 (stereo not drawn) [1-(4-Benzo[1,3]dioxol-4-yl-2-hydroxy-4-methyl-2-trifluoromethylpentyl)-3-chloro-1H-[1,6]naphthyridin-4-one]
CC(C)(CC(O)(Cn1ccc(=O)c2cnccc21)C(F)(F)F)c1cc(-c2cncnc2)cc2c1OCC2 (stereo not drawn) [1-[2-Hydroxy-4-methyl-4-(5-pyrimidin-5-yl-2,3-dihydrobenzofuran-7-yl)-2-trifluoromethylpentyl]-1H-[1,6]naphthyridin-4-one]
CC(C)(CC(O)(Cn1ccc(=O)c2cnccc21)C(F)(F)F)c1cc(F)ccc1O (stereo not drawn) [1-[4-(5-Fluoro-2-hydroxyphenyl)-2-hydroxy-4-methyl-2-trifluoromethylpentyl]-1H-[1,6]naphthyridin-4-one]
COc1ccc(F)cc1C(C)(C)CC(O)(Cn1ccc(=O)c2cnccc21)C(F)(F)F (stereo not drawn) [1-[4-(5-Fluoro-2-methoxyphenyl)-2-hydroxy-4-methyl-2-trifluoromethylpentyl]-1H-[1,6]naphthyridin-4-one]
Cc1ccc(F)cc1C(C)(C)CC(O)(Cn1ccc(=O)c2cnccc21)C(F)(F)F (stereo not drawn) [1-[4-(5-Fluoro-2-methylphenyl)-2-hydroxy-4-methyl-2-trifluoromethylpentyl]-1H-[1,6]naphthyridin-4-one]
CC(C)(CC(O)(Cn1cc(Cl)c(=O)c2cnccc21)C(F)(F)F)c1cc(-c2cccnc2)cc2c1OCC2 (stereo not drawn) [3-Chloro-1-[2-hydroxy-4-methyl-4-(5-pyridin-3-yl-2,3-dihydrobenzofuran-7-yl)-2-trifluoromethylpentyl]-1H-[1,6]naphthyridin-4-one]
CC(C)(CC(O)(Cn1cc(Cl)c(=O)c2cnccc21)C(F)(F)F)c1cc(-c2cncnc2)cc2c1OCC2 (stereo not drawn) [3-Chloro-1-[2-hydroxy-4-methyl-4-(5-pyrimidin-5-yl-2,3-dihydrobenzofuran-7-yl)-2-trifluoromethylpentyl]-1H-[1,6]naphthyridin-4-one]
CC(C)(CC(O)(Cn1cc(Cl)c(=O)c2sccc21)C(F)(F)F)c1cccc2c1OCO2 (stereo not drawn) [4-(4-Benzo[1,3]dioxol-4-yl-2-hydroxy-4-methyl-2-trifluoromethylpentyl)-6-chloro-4H-thieno[3,2-b]pyridin-7-one]
CC(C)(CC(O)(Cn1ccc(=O)c2sccc21)C(F)(F)F)c1cccc(-c2ccccc2)c1 (stereo not drawn) [4-(4-Biphenyl-3-yl-2-hydroxy-4-methyl-2-trifluoromethylpentyl)-4H-thieno[3,2-b]pyridin-7-one]
CC(C)(CC(O)(Cn1cc(Cl)c(=O)c2sccc21)C(F)(F)F)c1cccc(-c2ccccc2)c1 (stereo not drawn) [4-(4-Biphenyl-3-yl-2-hydroxy-4-methyl-2-trifluoromethylpentyl)-6-chloro-4H-thieno[3,2-b]pyridin-7-one]
Cc1cccc(C(C)(C)CC(O)(Cn2ccc(=O)c3sccc32)C(F)(F)F)c1O (stereo not drawn) [4-[2-Hydroxy-4-(2-hydroxy-3-methylphenyl)-4-methyl-2-trifluoromethylpentyl]-4H-thieno[3,2-b]pyridin-7-one]
CC(C)(CC(O)(Cn1ccc(=O)c2sccc21)C(F)(F)F)c1cc(-c2cncnc2)ccc1O (stereo not drawn) [4-[2-Hydroxy-4-(2-hydroxy-5-pyrimidin-5-ylphenyl)-4-methyl-2-trifluoromethylpentyl]-4H-thieno[3,2-b]pyridin-7-one]
COc1c(C)cccc1C(C)(C)CC(O)(Cn1ccc(=O)c2sccc21)C(F)(F)F (stereo not drawn) [4-[2-Hydroxy-4-(2-methoxy-3-methylphenyl)-4-methyl-2-trifluoromethylpentyl]-4H-thieno[3,2-b]pyridin-7-one]
COc1ccc(-c2cccnc2)cc1C(C)(C)CC(O)(Cn1ccc(=O)c2sccc21)C(F)(F)F (stereo not drawn) [4-[2-Hydroxy-4-(2-methoxy-5-pyridin-3-ylphenyl)-4-methyl-2-trifluoromethylpentyl]-4H-thieno[3,2-b]pyridin-7-one]
COc1ccccc1C(C)(C)CC(O)(Cn1ccc(=O)c2sccc21)C(F)(F)F (stereo not drawn) [4-[2-Hydroxy-4-(2-methoxyphenyl)-4-methyl-2-trifluoromethylpentyl]-4H-thieno[3,2-b]pyridin-7-one]
CC(C)(CC(O)(Cn1ccc(=O)c2sccc21)C(F)(F)F)c1cc(-c2cncnc2)cc2c1OCC2 (stereo not drawn) [4-[2-Hydroxy-4-methyl-4-(5-pyrimidin-5-yl-2,3-dihydrobenzofuran-7-yl)-2-trifluoromethylpentyl]-4H-thieno[3,2-b]pyridin-7-one]
CC(C)(CC(O)(Cn1ccc(=O)c2sccc21)C(F)(F)F)c1cccc2c1OCC2 (stereo not drawn) [4-[4-(2,3-Dihydrobenzofuran-7-yl)-2-hydroxy-4-methyl-2-trifluoromethylpentyl]-4H-thieno[3,2-b]pyridin-7-one]
Cc1cccc(C(C)(C)CC(O)(Cn2ccc(=O)c3sccc32)C(F)(F)F)c1OC(F)F (stereo not drawn) [4-[4-(2-Difluoromethoxy-3-methylphenyl)-2-hydroxy-4-methyl-2-trifluoromethylpentyl]-4H-thieno[3,2-b]pyridin-7-one]
COc1c(Br)cccc1C(C)(C)CC(O)(Cn1ccc(=O)c2sccc21)C(F)(F)F (stereo not drawn) [4-[4-(3-Bromo-2-methoxyphenyl)-2-hydroxy-4-methyl-2-trifluoromethylpentyl]-4H-thieno[3,2-b]pyridin-7-one]
COc1ccc(F)cc1C(C)(C)CC(O)(Cn1ccc(=O)c2sccc21)C(F)(F)F (stereo not drawn) [4-[4-(5-Fluoro-2-methoxyphenyl)-2-hydroxy-4-methyl-2-trifluoromethylpentyl]-4H-thieno[3,2-b]pyridin-7-one]
Cc1ccc(F)cc1C(C)(C)CC(O)(Cn1ccc(=O)c2sccc21)C(F)(F)F (stereo not drawn) [4-[4-(5-Fluoro-2-methylphenyl)-2-hydroxy-4-methyl-2-trifluoromethylpentyl]-4H-thieno[3,2-b]pyridin-7-one]
CC(C)(CC(O)(Cn1cc(Br)c(=O)c2sccc21)C(F)(F)F)c1cccc2c1OCC2 (stereo not drawn) [6-Bromo-4-[4-(2,3-dihydrobenzofuran-7-yl)-2-hydroxy-4-methyl-2-trifluoromethylpentyl]-4H-thieno[3,2-b]pyridin-7-one]
COc1ccc(-c2cccnc2)cc1C(C)(C)CC(O)(Cn1cc(Cl)c(=O)c2sccc21)C(F)(F)F (stereo not drawn) [6-Chloro-4-[2-hydroxy-4-(2-methoxy-5-pyridin-3-ylphenyl)-4-methyl-2-trifluoromethylpentyl]-4H-thieno[3,2-b]pyridin-7-one]
COc1ccc(-c2cncnc2)cc1C(C)(C)CC(O)(Cn1cc(Cl)c(=O)c2sccc21)C(F)(F)F (stereo not drawn) [6-Chloro-4-[2-hydroxy-4-(2-methoxy-5-pyrimidin-5-ylphenyl)-4-methyl-2-trifluoromethylpentyl]-4H-thieno[3,2-b]pyridin-7-one]
